Consider five molecules from US20130102009A1, “SIRTUIN ACTIVATORS AND ACTIVATION ASSAYS” (priority 2010, published 2013).

Where a name gives a salt, the structure may show the parent alone. A value given as a limit tells only on which side of the number the result lay.

One assay has as its target T1, SIRT1 (Homo sapiens, UniProt Q96EB6).
T1 sequence (Q96EB6 1-747): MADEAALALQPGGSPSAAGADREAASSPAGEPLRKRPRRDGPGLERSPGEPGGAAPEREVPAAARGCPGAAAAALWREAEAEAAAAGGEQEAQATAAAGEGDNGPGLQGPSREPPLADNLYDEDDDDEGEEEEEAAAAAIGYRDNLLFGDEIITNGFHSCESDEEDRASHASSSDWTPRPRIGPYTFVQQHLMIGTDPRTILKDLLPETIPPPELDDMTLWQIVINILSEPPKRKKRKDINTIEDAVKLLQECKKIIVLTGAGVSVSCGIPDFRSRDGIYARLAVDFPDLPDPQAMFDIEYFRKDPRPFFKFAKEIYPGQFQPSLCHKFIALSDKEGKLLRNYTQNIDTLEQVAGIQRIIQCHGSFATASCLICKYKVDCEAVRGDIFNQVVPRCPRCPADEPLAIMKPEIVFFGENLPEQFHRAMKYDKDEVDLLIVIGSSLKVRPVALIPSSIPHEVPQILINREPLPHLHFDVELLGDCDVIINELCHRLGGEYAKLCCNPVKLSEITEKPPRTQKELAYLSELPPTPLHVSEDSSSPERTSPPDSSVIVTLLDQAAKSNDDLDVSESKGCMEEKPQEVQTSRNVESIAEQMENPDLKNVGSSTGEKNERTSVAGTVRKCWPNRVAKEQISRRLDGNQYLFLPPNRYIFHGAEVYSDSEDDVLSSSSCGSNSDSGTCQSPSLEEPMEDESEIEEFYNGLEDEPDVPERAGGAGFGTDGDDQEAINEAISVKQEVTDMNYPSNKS
In words: Mass spectrometry based SIRT1 activation assay (TAMRA/5TMR-labeled 20mer peptide). The assay is classed as biochemical. As to conditions: for Emax: 25 min, percent maximum fold activation of SIRT1, read-out: % FOLD ACT.; for EC1.5 uM: concentration that results in 150% activation of SIRT1. The gist of the method:
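N-terminal His-tagged human SIRT1 from E. coli BL21(DE3), 10 nM, incubated 25 min at 25° C with 0.5 μM biotin/5TMR-labeled acetylated p53-derived 20mer peptide and 120 μM βNAD+ in Tris-acetate pH 8 buffer with DTT and BSA. Formic acid stop; MS quantifies acetylated vs deacetylated peptide. EC1.5 = concentration giving 150% activation.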

For assay [1], the target named is Ac-Arg-His-Lys-Lys^Ac-Trp-NH2. In words: ITC binding of STACs to Ac-Arg-His-Lys-Lys^Ac-X, X=TrpNH2. As to conditions: 10% DMSO for SRT1720, SRT2183 and 10, no cosolvent for SRT1460. How it is done:
(§1) ITC experiments were performed using either a VP-ITC system or iTC200 system (MicroCal) at 26° C. in a buffer composed of 137 mM NaCl, 2.7 mM KCl, 1 mM MgCl2, 2 mM TCEP, 5% (v/v) glycerol and 50 mM HEPES-NaOH, pH 7.3. SIRT1(183-664) was purified and dialyzed against the buffer, centrifuged, and degassed before the experiment. The peptide and compounds were dissolved in the final dialysis buffer and their pH values were adjusted to match that of the protein solution. […] To characterize this interaction using the iTC200 system, 1 mM TAMRA-peptide was injected in 20 aliquots of 2 μL, (except the first injection, which was 0.5 μL) into a 0.202 mL sample cell containing 100 μM STAC. For STACs with poor solubility, the concentrations were adjusted accordingly. […] In all cases, data was corrected for the heat of dilution and fitted using a nonlinear least-squares routine using a single-site binding model with Origin for ITC v7.0383 (Microcal) with the stoichiometry (n), the enthalpy of the reaction (ΔH) and the association constant (Ka) calculated. Table 2 summarizes Kd values for the binding of STACs to […]. Note that except for SRT1460, the solubility of the compounds required that these ITC experiments be done in solutions containing 10% DMSO.

The target in assay [2] is Ac-Arg-His-Lys-Lys^Ac-Phe-NH2. In words: ITC binding of STACs to Ac-Arg-His-Lys-Lys^Ac-X, X=PheNH2. As to conditions: 10% DMSO for SRT1720, SRT2183 and 10, no cosolvent for SRT1460. The protocol: as §1

For the molecule `CN(C)Cc1cnc2sc(-c3ccccc3NC(=O)c3cnc4ccccc4n3)nc2c1` [Compound 2, N-(2-(6-((dimethylamino)methyl)thiazolo[5,4-b]pyridin-2-yl)phenyl)quinoxaline-2-carboxamide], at SIRT1, the Emax was less than 200% and the “EC1.5 uM” value is recorded as “B (EC1.5>1 μM)”.

As to `CN(C)CCCNc1cc(-c2nc3c(NC(=O)c4ccc(CN5CCNCC5)cc4)cccc3[nH]2)ccn1` [Compound 14, N-(2-(2-(3-(dimethylamino)propylamino)pyridin-4-yl)-1H-benzo[d]imidazol-4-yl)-4-(piperazin-1-ylmethyl)benzamide trihydrochloride], on SIRT1, the Emax is not below 200% and the “EC1.5 uM” value was “A (EC1.5≦1 μM)”.

On to `CCCCc1nc(NC2CCNCC2)cc(C(=O)Nc2ccccc2-c2nc3cc(COC4CCNCC4)cnc3s2)n1` [Compound 10, 2-butyl-6-(piperidin-4-ylamino)-N-(2-(6-((piperidin-4-yloxy)methyl)thiazolo[5,4-b]pyridin-2-yl)phenyl)pyrimidine-4-carboxamide], for which, in assay [1], the Kd stood at 25 µM and the “Kd for binding to Ac-Arg-His-Lys-Lys^Ac-X, X=TrpNH2” value is “binds”. For the same molecule, in assay [2], binding was characterised by a dissociation constant (Kd) of 190 µM and the “Kd for binding to Ac-Arg-His-Lys-Lys^Ac-X, X=PheNH2” value was “does bind”. In addition, at SIRT1, the Emax is not below 200% and the “EC1.5 uM” value is listed as “A (EC1.5≦1 μM)”.

Turning to `Cc1nc(-c2cccnc2)sc1C(=O)Nc1ccccc1-c1cn2c(CN3CC4CC3CN4)csc2n1` (stereo not drawn) [Compound 4, N-(2-(3-(2,5-diazabicyclo[2.2.1]heptan-2-ylmethyl)imidazo[2,1-b]thiazol-6-yl)phenyl)-4-methyl-2-(pyridin-3-yl)thiazole-5-carboxamide], at SIRT1, the Emax is not below 200% and the “EC1.5 uM” value is on record as “A (EC1.5≦1 μM)”.

Take `COc1cc(C(=O)Nc2ccccc2-c2cn3c(CN4CCNCC4)csc3n2)cc(OC)c1OC` [SRT1460]: the Kd in assay [1] is more than 500 µM. For the same molecule, in assay [2], the Kd was more than 500 µM and the “Kd for binding to Ac-Arg-His-Lys-Lys^Ac-X, X=PheNH2” value is listed as “no binding”.

Broadly, the Kd is the constant that tells how readily two partners part at equilibrium. Read a high Kd as weaker binding.
